This is an account of results in US12102635B2, “Methods of using protein palmitoylations inhibitors” (priority 2021, dated 2024).

Several values for one entry are separate records, joined by “and”; a condition that tells them apart may be missing. Equal values may be shown once.

For one data set, the system named is HEK293T cells. Conditions: for observable toxicity: XTT, concentrations below 3 μM, relative to DMSO. In general terms: Tetrazolium assays rely on reduction of a dye to a coloured formazan, in cell work by metabolically active cells.
A further data set concerns SARS-CoV-2. It counts as cell-based.
The subject of a further data set is Caco-2 cells. Conditions: XTT, concentrations below 3 μM, relative to DMSO.
A further data set has as its system SARS-CoV-2-mNG. It counts as cell-based.
In data set [1] the test system is SARS-CoV-2 spike protein. It counts as cell-based, human.
The test system of data set [2] is SARS-COV-2 spike pseudotyped lentivirus. It counts as cell-based.
Another data set has as its target T1, yeast homolog of DHHC9 (Saccharomyces cerevisiae, UniProt Q06551).
T1 sequence (Q06551 1-359): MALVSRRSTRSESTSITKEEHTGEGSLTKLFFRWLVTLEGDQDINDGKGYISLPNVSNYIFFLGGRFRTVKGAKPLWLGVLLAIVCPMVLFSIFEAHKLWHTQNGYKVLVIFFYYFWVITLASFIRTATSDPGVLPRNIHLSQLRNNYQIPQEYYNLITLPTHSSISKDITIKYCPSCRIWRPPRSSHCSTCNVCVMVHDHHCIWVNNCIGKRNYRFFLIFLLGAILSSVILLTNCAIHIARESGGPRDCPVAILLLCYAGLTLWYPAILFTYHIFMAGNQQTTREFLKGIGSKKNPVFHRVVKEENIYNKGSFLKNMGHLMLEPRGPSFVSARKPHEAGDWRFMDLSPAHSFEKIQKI
T1 sequence (P41912 1-237 partner): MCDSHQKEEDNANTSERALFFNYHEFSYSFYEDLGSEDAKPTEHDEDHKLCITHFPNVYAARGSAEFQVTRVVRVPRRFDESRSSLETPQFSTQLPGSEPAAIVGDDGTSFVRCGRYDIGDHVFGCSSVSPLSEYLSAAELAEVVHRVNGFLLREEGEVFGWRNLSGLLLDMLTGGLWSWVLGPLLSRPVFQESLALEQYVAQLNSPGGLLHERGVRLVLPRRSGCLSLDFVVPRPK
To be noted: previous screen; cited from earlier work.

Data set [3] deals with SARS-CoV-2 spike protein. It counts as cell-based.
The next data set has as its system GAPDH. It counts as cell-based, human. Conditions: 10 μM, HEK293T cells.
Data set [4] relates to SARS-COV-2 spike pseudotyped lentivirus. It counts as cell-based. This is another data set of the same source.
Data set [5] shares this test system. It counts as cell-based. This is another data set of the same source.

For `CC(C)Cc1ccc(C(C)CN2CCNC[C@@H]2CCCCN2CCN(CC(C)c3ccc(CC(C)C)cc3)[C@@H](Cc3ccc(O)cc3)C2)cc1` (stereo partly drawn) [Compound 2, 4-(((2S)-1-(2-(4-isobutylphenyl)propyl)-4-(4-((2S)-1-(2-(4-isobutylphenyl)propyl)piperazin-2-yl)butyl)piperazin-2-yl)methyl) phenol], in the data set on HEK293T cells, the maximal non-toxic concentration is 3 µM. For the same compound, the observable toxicity result in the data set on HEK293T cells and in the data set with Caco-2 cells was “no observable toxicity” each time. In addition, the “reduction viral infection of Vero-E6 cells” value in the data set on SARS-CoV-2 is listed as 60%. In addition, the mNeonGreen signal result with SARS-CoV-2-mNG is “dose dependent reduction in mNeonGreen signal”. In the data set on SARS-CoV-2 spike protein [1], the “reduction in syncytia formation” value is 58% and 60%. For the same compound, the “quantity of pseudovirus released from the producer cells (egress)” value in [2] was “do not reduce the quantity of pseudovirus released”. Further, the inhibition of palmitoylation entry at yeast homolog of DHHC9 is “low micromolar concentrations”. Also, in the data set on SARS-CoV-2 spike protein [3], the “reduction of palmitoylation of the spike protein” value is 37%.
Regarding `CC(C)Cc1ccc(C(C)CN2CCN(CCCC[C@H]3CNCCN3CCc3cc(C(F)(F)F)cc(C(F)(F)F)c3)C[C@@H]2Cc2ccc(O)cc2)cc1` (stereo partly drawn) [Compound 3, 4-(((2S)-4-(4-((S)-1-(3,5-bis(trifluoromethyl)phenethyl)piperazin-2-yl)butyl)-1-(2-(4-isobutylphenyl)propyl)piperazin-2-yl)methyl) phenol], the maximal non-toxic concentration in the data set with HEK293T cells turned out to be 3 µM. The observable toxicity entry in the data set on HEK293T cells and with Caco-2 cells was “no observable toxicity” throughout. Also, in the data set with SARS-CoV-2, the “reduction viral infection of Vero-E6 cells” value came to 76%. Further, in the data set on SARS-CoV-2-mNG, the mNeonGreen signal result is reported as “dose dependent reduction in mNeonGreen signal”. Moreover, the “reduction in syncytia formation” value in the data set on SARS-CoV-2 spike protein [1] was 45% and 50%. The “quantity of pseudovirus released from the producer cells (egress)” value in data set [2] is given as “do not reduce the quantity of pseudovirus released”. Further, on yeast homolog of DHHC9, the inhibition of palmitoylation result was “low micromolar concentrations”. In addition, the “reduction of palmitoylation of the spike protein” value in the data set with SARS-CoV-2 spike protein [3] stood at 44%.
Regarding `CCCCCCCCCCCCCCC(Br)C(=O)O` (centres unmarked) [Compound 2-BP, 2-bromopalmitic acid, reference compound], the GAPDH palmitoylation result in the data set with GAPDH is reported as “reduced”. Further, the “pseudovirus infection (luciferase)” value in [4] was “significant reduction in pseudovirus infection”. Also, the mNeonGreen signal entry in the data set with SARS-CoV-2-mNG was “dose dependent reduction in mNeonGreen signal”. The “luciferase signal (pseudovirus infection)” value in data set [5] is given as “reduced luciferase signal significantly”. Further, the spike palmitoylation result in the data set with SARS-CoV-2 spike protein [3] was “inhibited spike palmitoylation”.
